Measured values: patent publication US9770026B2, “Substituted pyrimidine compound and uses thereof” (Shenyang Sinochem Agrochemicals R&D Co., Ltd., priority 2012, dated 2017)

Legend:
armyworm = experiment: bioactivity test against armyworm, airbrush spray; type: in vivo
Protocol: (§1) Compounds were dissolved in mixed solvent (acetone:methanol=1:1), and diluted to required concentration with water containing 0.1% of tween 80.
(§2) Diamond back moth, armyworm, peach aphid and carmine spider mite were used as targets and the method of spraying by airbrush was used for determination of insecticidal biassays.
(§3) The method of spraying by airbrush: The corn leaves were made into plates of 2 cm diameter by use of punch. A test solution (0.5 ml) was sprayed by airbrush at the pressure of 0.7 kg/cm^2 to both sides of every plate. 10 Second instar larvae were put into the petri-dishes after the leaf disc air-dried and 3 replicates were set for each treatment. Then the insects were maintained in observation room (25 °C, 60˜70% R.H.). Scores were conducted and mortalities were calculated after 72 h.

corn rust = experiment: protectant activity in vivo against corn rust
carmine spider mite = experiment: bioactivity test against carmine spider mite, airbrush spray; type: in vivo; settings: for control against carmine spider mite: mortality after 72 hrs
Protocol: as §1, §2
The method: Broadbean shoots with two true leaves in pot were taken, the healthy adults of carmine spider mite were inoculated to the leaves. The adults were counted and then sprayed with airbrush at the pressure of 0.7 kg/cm^2 and at dose of 0.5 ml. 3 replicates were set for each treatment. And then they were maintained in standard observation room. Scores were conducted and mortalities were calculated after 72 hrs.

[1] = test system: Green peach aphids (Myzus Persicae Sulzer); experiment: bioactivity test against green peach aphid, airbrush foliar spray; type: in vivo
Protocol: as §1, §2
Method: Filter papers were put in culture dishes (Diameter=6 cm), and water was dripped on filter papers for preserving moisture. Green peach aphids (Myzus Persicae Sulzer) were maintained on cabbage. Leaves (Diameter=3 cm) of approximately 15-30 aphids were put in the culture dishes. Bioactivity tests were used the method of Airbrush Foliar Spray, pressure=10 psi (0.7 kg/cm2), spray volume=0.5 mL. The studies were conducted at […] 25±1 C in incubator cabinets with 60±5% RH. Survey the survival aphids after 48 hrs and calculate the death rates.

wheat powdery mildew = experiment: protectant activity in vivo against wheat powdery mildew
Diamond back moth = experiment: insecticidal activity against diamond back moth, airbrush spray; type: in vivo; settings: for control (test results against diamond back moth): 600 ppm, mortality after 72 hrs
Protocol: as §1, §2
as §3, with “The cabbage” for “The corn”, “room (25° C.,” for “room (25 °C,”, “72 hrs.” for “72 h.”

cucumber downy mildew = experiment: protectant activity in vivo against cucumber downy mildew
[2] = Tetranychus cinnabarinus, 72 h, 600 mg/L, contrastive test, read-out: Insecticidal activity against carmine spider mite (% )
[3] = 10 ppm, death rate after 48 hrs
[4] = 100 ppm, death rate after 48 hrs
[5] = 600 ppm, death rate after 48 hrs

CCc1c(Cl)c(NCCc2ccc(Oc3ccc(C(F)(F)F)cc3)cc2)nc[n+]1CC(=O)c1ccccc1.[Br-] [CK5, reference compound]
Insecticidal activity against armyworm (%) (armyworm; 10 mg/L): 0%
Insecticidal activity against armyworm (%) (armyworm; 100 mg/L): 56%
Insecticidal activity against armyworm (%) (armyworm; 600 mg/L): 100%
control effect against corn rust (%) (corn rust; 6.25 mg/L, protectant activity): 30%
control effect against corn rust (%) (corn rust; 25 mg/L, protectant activity): 40%
control effect against corn rust (%) (corn rust; 100 mg/L, protectant activity): 98%
control effect against corn rust (%) (corn rust; 400 mg/L, protectant activity): 95%

CCc1ncnc(NCc2ccc(Oc3ncc(Cl)cc3Cl)cc2)c1Cl [CK64, reference compound]
pest or weed control at 600 µg/mL (armyworm; 72 h, 600 mg/L, read-out: Insecticidal activity against armyworm (%)): 0%
pest or weed control at 600 µg/mL (carmine spider mite; [2]): 56%

FC(F)(F)c1ccc(Oc2ccc(CCNc3cc(Cl)ncn3)cc2)nc1 [CK69, reference compound]
pest or weed control at 10 µg/mL (carmine spider mite; Tetranychus cinnabarinus, 72 h, 10 mg/L, contrastive test, read-out: Insecticidal activity against carmine spider mite (% )): 4%
pest or weed control at 100 µg/mL (carmine spider mite; Tetranychus cinnabarinus, 72 h, 100 mg/L, contrastive test, read-out: Insecticidal activity against carmine spider mite (% )): 100%
pest or weed control at 600 µg/mL (carmine spider mite; [2]): 100%
pest or weed control at 10 µg/mL ([1]; Myzus persicae, foliar, 48 h, 10 mg/L, contrastive test, read-out: Insecticidal activity against peach aphid (%)): 70%
pest or weed control at 100 µg/mL ([1]; Myzus persicae, foliar, 48 h, 100 mg/L, contrastive test, read-out: Insecticidal activity against peach aphid (%)): 100%
pest or weed control at 600 µg/mL ([1]; Myzus persicae, foliar, 48 h, 600 mg/L, contrastive test, read-out: Insecticidal activity against peach aphid (%)): 100%
pest or weed control at 6.25 µg/mL (wheat powdery mildew; Triticum aestivum, 168 h, read-out: control effect against wheat powdery mildew (%), 6.25 mg/L, protectant activity): 0%
pest or weed control at 25 µg/mL (wheat powdery mildew; Triticum aestivum, 168 h, read-out: control effect against wheat powdery mildew (%), 25 mg/L, protectant activity): 0%
pest or weed control at 100 µg/mL (wheat powdery mildew; Triticum aestivum, 168 h, read-out: control effect against wheat powdery mildew (%), 100 mg/L, protectant activity): 0%
pest or weed control at 400 µg/mL (wheat powdery mildew; Triticum aestivum, 168 h, read-out: control effect against wheat powdery mildew (%), 400 mg/L, protectant activity): 100%
pest or weed control at 10 µg/mL (Diamond back moth; 72 h, 10 mg/L): 0%
pest or weed control at 100 µg/mL (Diamond back moth; 72 h, 100 mg/L): 5%
pest or weed control at 600 µg/mL (Diamond back moth; 72 h, 600 mg/L): 100%
pest or weed control at 25 µg/mL (cucumber downy mildew; Cucumis sativus, 168 h, read-out: control effect against cucumber downy mildew (%), 25 mg/L, protectant activity): 50%
pest or weed control at 50 µg/mL (cucumber downy mildew; Cucumis sativus, 168 h, read-out: control effect against cucumber downy mildew (%), 50 mg/L, protectant activity): 98%
pest or weed control at 100 µg/mL (cucumber downy mildew; Cucumis sativus, 168 h, read-out: control effect against cucumber downy mildew (%), 100 mg/L, protectant activity): 100%
pest or weed control at 400 µg/mL (cucumber downy mildew; Cucumis sativus, 168 h, read-out: control effect against cucumber downy mildew (%), 400 mg/L, protectant activity): 100%
pest or weed control at 6.25 µg/mL (corn rust; Zea mays, 168 h, read-out: control effect against corn rust (%), 6.25 mg/L, protectant activity): 0%
pest or weed control at 25 µg/mL (corn rust; Zea mays, 168 h, read-out: control effect against corn rust (%), 25 mg/L, protectant activity): 50%
pest or weed control at 100 µg/mL (corn rust; Zea mays, 168 h, read-out: control effect against corn rust (%), 100 mg/L, protectant activity): 90%
pest or weed control at 400 µg/mL (corn rust; Zea mays, 168 h, read-out: control effect against corn rust (%), 400 mg/L, protectant activity): 100%

CCc1ncnc(NCCc2ccc(Oc3ncc(C(F)(F)F)cc3Cl)c(Cl)c2)c1Cl [Compound I-1472]
control (test results against armyworm) (armyworm; 600 ppm, mortality after 72 h): 100%
control against carmine spider mite (carmine spider mite; 600 ppm): 100%
control (test results against green peach aphid) [1, 3]: 100%
control (test results against green peach aphid) [1, 4]: 100%
control (test results against green peach aphid) [1, 5]: 100%
protectant activity against wheat powdery mildew in vivo (wheat powdery mildew; 100 ppm): 100%
protectant activity against wheat powdery mildew in vivo (wheat powdery mildew; 400 ppm): 100%
protectant activity against corn rust in vivo (corn rust; 400 ppm): 100%

FC(F)(F)c1ccc(Oc2ccc(CCNc3ncnc(C(F)(F)F)c3Cl)cc2)nc1 [Compound I-2748]
pest or weed control at 600 ppm (armyworm; 72 h, 600 ppm, mortality after 72 h): 80 to 99%
pest or weed control at 600 ppm ([1]; Myzus persicae, foliar, 48 h, 600 ppm, death rate after 48 hrs): 100%
pest or weed control at 400 ppm (wheat powdery mildew; Triticum aestivum, 168 h, read-out: protectant activity against wheat powdery mildew in vivo, 400 ppm): 80 to 99%
pest or weed control at 50 ppm (cucumber downy mildew; Cucumis sativus, 168 h, read-out: protectant activity against cucumber downy mildew in vivo, 50 ppm): 100%
pest or weed control at 100 ppm (cucumber downy mildew; Cucumis sativus, 168 h, read-out: protectant activity against cucumber downy mildew in vivo, 100 ppm): 100%
pest or weed control at 400 ppm (cucumber downy mildew; Cucumis sativus, 168 h, read-out: protectant activity against cucumber downy mildew in vivo, 400 ppm): 100%
pest or weed control at 400 ppm (corn rust; Zea mays, 168 h, read-out: protectant activity against corn rust in vivo, 400 ppm): 80 to 99%

CCc1ncnc(NCCc2ccc(Oc3ccc(C(F)(F)F)cn3)cc2)c1Cl [Compound I-6741]
control (test results against armyworm) (armyworm; 100 ppm, mortality after 72 h): 100%
control (test results against armyworm) (armyworm; 600 ppm, mortality after 72 h): 100%
Insecticidal activity against carmine spider mite (% ) (carmine spider mite; 10 mg/L, contrastive test): 85%
Insecticidal activity against carmine spider mite (% ) (carmine spider mite; 100 mg/L, contrastive test): 100%
Insecticidal activity against carmine spider mite (% ) (carmine spider mite; 600 mg/L, contrastive test): 100%
control against carmine spider mite (carmine spider mite; 100 ppm): 100%
control against carmine spider mite (carmine spider mite; 600 ppm): 100%
control (test results against green peach aphid) ([1]; 5 ppm, death rate after 48 hrs): 100%
control (test results against green peach aphid) [1, 3]: 100%
control (test results against green peach aphid) [1, 4]: 100%
control (test results against green peach aphid) [1, 5]: 100%
protectant activity against wheat powdery mildew in vivo (wheat powdery mildew; 100 ppm): 100%
protectant activity against wheat powdery mildew in vivo (wheat powdery mildew; 400 ppm): 100%
protectant activity against corn rust in vivo (corn rust; 100 ppm): 100%
protectant activity against corn rust in vivo (corn rust; 400 ppm): 100%

Cc1ncnc(NCCc2ccc(Oc3ccc(Cl)cc3Cl)cc2)c1Cl [II-21]
control (test results against armyworm) (armyworm; 600 ppm, mortality after 72 h): 100%
control against carmine spider mite (carmine spider mite; 100 ppm): 100%
control against carmine spider mite (carmine spider mite; 600 ppm): 100%
control (test results against green peach aphid) [1, 5]: 100%
protectant activity against cucumber downy mildew in vivo (cucumber downy mildew; 50 ppm): 100%
protectant activity against cucumber downy mildew in vivo (cucumber downy mildew; 100 ppm): 100%
protectant activity against cucumber downy mildew in vivo (cucumber downy mildew; 400 ppm): 100%
protectant activity against corn rust in vivo (corn rust; 100 ppm): 100%
protectant activity against corn rust in vivo (corn rust; 400 ppm): 100%

CCc1ncnc(NCCc2ccc(Oc3ccc(Cl)cc3Cl)cc2)c1Cl [II-299]
control (test results against armyworm) (armyworm; 600 ppm, mortality after 72 h): 100%
Insecticidal activity against carmine spider mite (% ) (carmine spider mite; 10 mg/L, contrastive test): 72%
Insecticidal activity against carmine spider mite (% ) (carmine spider mite; 100 mg/L, contrastive test): 100%
Insecticidal activity against carmine spider mite (% ) (carmine spider mite; 600 mg/L, contrastive test): 100%
control against carmine spider mite (carmine spider mite; 100 ppm): 100%
control against carmine spider mite (carmine spider mite; 600 ppm): 100%
control (test results against green peach aphid) [1, 4]: 100%
control (test results against green peach aphid) [1, 5]: 100%
protectant activity against wheat powdery mildew in vivo (wheat powdery mildew; 400 ppm): 100%
protectant activity against cucumber downy mildew in vivo (cucumber downy mildew; 100 ppm): 100%
protectant activity against cucumber downy mildew in vivo (cucumber downy mildew; 400 ppm): 100%
protectant activity against corn rust in vivo (corn rust; 100 ppm): 100%
protectant activity against corn rust in vivo (corn rust; 400 ppm): 100%

CCc1ncnc(NCCc2ccc(Oc3ccc(C(F)(F)F)cc3Cl)cc2)c1Cl [II-432]
Insecticidal activity against carmine spider mite (% ) (carmine spider mite; 10 mg/L, contrastive test): 76%
Insecticidal activity against carmine spider mite (% ) (carmine spider mite; 100 mg/L, contrastive test): 100%
Insecticidal activity against carmine spider mite (% ) (carmine spider mite; 600 mg/L, contrastive test): 100%
control against carmine spider mite (carmine spider mite; 100 ppm): 100%
control against carmine spider mite (carmine spider mite; 600 ppm): 100%
control (test results against green peach aphid) [1, 4]: 100%
control (test results against green peach aphid) [1, 5]: 100%
control effect against wheat powdery mildew (%) (wheat powdery mildew; 0.4 mg/L, protectant activity): 50%
control effect against wheat powdery mildew (%) (wheat powdery mildew; 1.6 mg/L, protectant activity): 80%
control effect against wheat powdery mildew (%) (wheat powdery mildew; 6.25 mg/L, protectant activity): 100%
control effect against wheat powdery mildew (%) (wheat powdery mildew; 25 mg/L, protectant activity): 100%
control effect against wheat powdery mildew (%) (wheat powdery mildew; 100 mg/L, protectant activity): 100%
control effect against wheat powdery mildew (%) (wheat powdery mildew; 400 mg/L, protectant activity): 100%
protectant activity against wheat powdery mildew in vivo (wheat powdery mildew; 6.25 ppm): 100%
protectant activity against wheat powdery mildew in vivo (wheat powdery mildew; 25 ppm): 100%
protectant activity against wheat powdery mildew in vivo (wheat powdery mildew; 100 ppm): 100%
protectant activity against wheat powdery mildew in vivo (wheat powdery mildew; 400 ppm): 100%
protectant activity against cucumber downy mildew in vivo (cucumber downy mildew; 400 ppm): 100%
control effect against corn rust (%) (corn rust; 0.4 mg/L, protectant activity): 15%
control effect against corn rust (%) (corn rust; 1.6 mg/L, protectant activity): 75%
control effect against corn rust (%) (corn rust; 6.25 mg/L, protectant activity): 100%
control effect against corn rust (%) (corn rust; 25 mg/L, protectant activity): 100%
control effect against corn rust (%) (corn rust; 100 mg/L, protectant activity): 100%
control effect against corn rust (%) (corn rust; 400 mg/L, protectant activity): 100%
protectant activity against corn rust in vivo (corn rust; 6.25 ppm): 100%
protectant activity against corn rust in vivo (corn rust; 25 ppm): 100%
protectant activity against corn rust in vivo (corn rust; 100 ppm): 100%
protectant activity against corn rust in vivo (corn rust; 400 ppm): 100%

CCc1ncnc(NCCc2ccc(Oc3ccc(S(N)(=O)=O)cc3)cc2)c1Cl [II-556]
control (test results against diamond back moth) (Diamond back moth): 100%

Cc1ncnc(NCCc2ccc(Oc3cccc(F)c3)c(Cl)c2)c1Cl [II-559]
control (test results against armyworm) (armyworm; 600 ppm, mortality after 72 h): 100%

CCc1ncnc(NCCc2ccc(Oc3ccccc3Cl)nc2)c1Cl [III-185]
control against carmine spider mite (carmine spider mite; 600 ppm): 100%
control (test results against green peach aphid) [1, 4]: 100%
control (test results against green peach aphid) [1, 5]: 100%
protectant activity against wheat powdery mildew in vivo (wheat powdery mildew; 400 ppm): 100%
control (test results against diamond back moth) (Diamond back moth): 100%
protectant activity against corn rust in vivo (corn rust; 400 ppm): 100%
